{
  "source": "patent US20240181000A1",
  "about": "“LGG-DERIVED PEPTIDES AND METHODS OF USE THEREOF” (Ohio State Innovation Foundation, priority 2021, published 2024)",
  "key": {"APEC O78 membrane": {"system": "APEC O78 membrane", "assay": "Transmission electron microscopy", "assay_type": "cell-based, E. coli", "conditions": "10×MIC, 3 h", "description": "Transmission electron microscopy: To visualize the effect of peptides (P1, P2, and P3) on APEC membrane, transmission electron microscopy (TEM) was performed as described previously. The peptide treatment was performed as described above. […] After incubation, cells were fixed overnight at room temperature with 3% glutaraldehyde & 2% paraformaldehyde), washed, and postfixed with 1% osmium tetroxide (OsO4). The cells were then dehydrated with graded ethanol series and embedding was performed using Embed 812 Kit (Electron Microscopy Sciences, PA). Ultrathin (70 nm) sections were prepared on formvar-carbon coated grids and stained with uranyl acetate and lead citrate. Microscopy was performed using Hitachi H-7500 microscope at MCIC. Untreated bacterial culture was used as control."}, "ST membrane": {"system": "ST membrane", "assay": "Transmission electron microscopy", "assay_type": "cell-based, Salmonella enterica", "conditions": "10×MIC, 3 h", "description": "ST was treated with 10× peptide MIC and incubated for 3 h.\nTransmission electron microscopy: To further visually analyze the inhibitory effects of P1 and P2 on ST, transmission electron microscopy (TEM) was performed as described previously. […] After which, cells were fixed overnight with 3% glutaraldehyde and 2% paraformaldehyde at room temperature. Cells were then washed and postfixed with 1% osmium tetroxide (OsO4). The washed cells were then dehydrated, with graded ethanol, and embedded with Embed 812 kit (Electron Microscopy Sciences, Pa). Ultrathin (70 nm) sections were prepared on formvar-carbon coated grids and stained with uranyl acetate and lead citrate. Untreated ST was used as a control. TEM was conducted at MCIC using the Hitachi H-7500 microscope."}, "multiple APEC serotypes": {"system": "multiple APEC serotypes", "assay_type": "cell-based, E. coli", "description": "Anti-APEC spectrum determination: Peptides (P1, P2, and P3) were tested against multiple APEC serotypes/strains to determine their spectrum of activity. Peptides were added at their MICs and the growth inhibitory activity of the peptides was determined as described above."}, "[1]": {"system": "commensal and probiotic bacteria", "assay": "Effect against beneficial microbes", "assay_type": "cell-based", "conditions": "at MICs", "description": "Effect against beneficial microbes: Peptides (P1, P2, and P3) were tested against different commensal and probiotic bacteria to determine their specificity of activity as described previously. Peptides were added at their MICs to 100 μL of known concentration of bacterial cultures and cultures were incubated under required conditions. Following incubation, OD600 of cultures was measured to determine the effect of peptides on bacterial growth."}, "[2]": {"system": "intracellular APEC O78 in HD11 cells", "assay": "Intracellular survival of APEC in HD11 cells (gentamicin protection assay)", "assay_type": "cell-based, chicken", "description": "Effect of peptides on intracellular survival of APEC in HD11 cells: To determine the efficacy of peptides (P1, P2, and P3) against intracellular APEC, gentamicin protection assay was conducted in HD 11 (chicken macrophage) cells as described previously. The cells were cultured in Iscove's Modified Dulbecco's Media (IMDM) supplemented with 10% fetal bovine serum (FBS), 2 mM L-glutamine and 2% penicillin-streptomycin (P/S) solution and maintained at 37° C. incubator with 5% C02. Cells (approximately 10^4 cells/well) were seeded in a 96-well cell culture plate in 100 μL culture media and incubated for 36 h prior to using for the assay. Following incubation, the cells were replenished with 100 μL of fresh cell culture media with no FBS and antibiotic and incubated until infection (2 h). For the infection, the overnight grown APEC O78 was subcultured to mid-logarithmic phase, centrifuged, washed twice with PBS, adjusted to 1×10^7 CFU/mL. One-hundred microliters of the APEC suspension (MOI: 100) was added to each well of the 96-well plate and incubated for 1 h to allow the invasion. The cells were washed twice and treated with gentamicin (150 μg/mL) to kill the extracellular APEC. The cells were treated with peptides at 12 mM, 15 mM, and 18 mM concentrations. Infected but not treated, infected and DMSO-treated, and non-infected and not treated cells were used as controls. Three independent experiments were conducted."}, "APEC": {"system": "APEC", "assay": "Alanine scanning SAR, anti-APEC activity", "assay_type": "cell-based, E. coli", "from_the_text": "Structure-activity relationship (SAR) study: To identify the crucial amino acid residues required for the peptide activity, alanine scanning libraries of peptides (P1, P2, and P3) (www.genscript.com/alanine_scanning.html) were synthesized (Table 22) and tested for anti-APEC activity as described above. The anti-APEC activity of peptide analogues (SEQ ID NO: 67-84) was then compared with the original peptide and the relative importance (% growth inhibition by peptide analogue/% growth inhibition by original peptide×100%) of each AA residue of the peptide was determined."}, "biofilm protected APEC": {"system": "biofilm protected APEC", "assay": "MBEC-HTP assay", "assay_type": "cell-based, E. coli", "conditions": "at MICs, 18 h; untreated 7.54 ± 0.07", "description": "MBEC™-HTP assay: To test the efficacy of the peptides (P1, P2, and P3) against biofilm protected APEC, Innovotech's MBEC Assay® was conducted as described previously(27). Briefly, 150 μL of 0.05 OD600 (5×10^7 CFU/mL) adjusted APEC suspension in LB media was aliquoted into the wells of MBEC™ device containing polystyrene pegs and incubated for 36 h on a rocker platform at 37° C. to allow the biofilm formation. After biofilm formation, the pegs were washed to remove loosely adherent planktonic bacteria and transferred to a new 96-well plate (challenge plate) containing peptides at MICs in 200 μL diluted (25%) LB media. The diluted LB media mimics the minimal media which stimulates biofilm formation and maintenance. The plate was incubated for 18 h at 37° C. with rotation at 150 rpm. Sterile media and DMSO (solvent) were used as controls. Following incubation, the MICs of peptides in challenge plate were recorded. The peptides exposed pegs were transferred to new 96-well plate containing PBS and sonicated for 30 mins to disrupt the biofilm. The sonicated suspensions were then ten-fold serially diluted and plated on LB agar plates to enumerate the biofilm protected bacteria and the minimum biofilm eradication concentration (MBEC) of peptides were determined. Three independent experiments were conducted."}},
  "note": "No end group written: not given here.",
  "data": [
    {"substance": "PDENK [Peptide P2, PDENK]", "values": [
      {"measurement": "APEC membrane in TEM", "setting": "APEC O78 membrane", "value": "membrane either sloughed (or shed), ruptured, or flaccid"},
      {"measurement": "ST membrane in TEM", "setting": "ST membrane", "value": "disruption of the membrane characterized by sloughed or flaccid appearance"},
      {"measurement": "Growth inhibition against APEC serotypes", "setting": "multiple APEC serotypes", "value": "95.0-100%"},
      {"measurement": "Growth of Gram-negative beneficial bacteria, particularly E. coli", "setting": "[1]", "value": "inhibited"},
      {"measurement": "Growth of Gram-positive beneficial bacteria", "setting": "[1]", "value": "no effect"},
      {"measurement": "Intracellular APEC (log CFU/mL)", "setting": "[2]; 12 mM, untreated 3.75 ± 0.10", "value": "3.33 ± 0.03", "unit": "log CFU/mL"},
      {"measurement": "Intracellular APEC (log CFU/mL)", "setting": "[2]; 15 mM", "value": "No intracellular APEC was recovered"},
      {"measurement": "Intracellular APEC (log CFU/mL)", "setting": "[2]; 15 mM, listed as P-2", "value": "0.00 ± 0.00", "unit": "log CFU/mL"},
      {"measurement": "Intracellular APEC (log CFU/mL)", "setting": "[2]; 18 mM", "value": "0.00 ± 0.00", "unit": "log CFU/mL"},
      {"measurement": "Relative importance of D and E in P2", "setting": "APEC", "value": 97.1, "unit": "%"},
      {"measurement": "Relative importance of P, N and K in P2", "setting": "APEC", "value": "< 40", "unit": "%"},
      {"measurement": "Biofilm protected APEC (log CFU/mL)", "setting": "biofilm protected APEC", "value": "0.00 ± 0.00", "unit": "log CFU/mL"}
    ]}
  ]
}
